Assay results from patent US20190369107A1, “ZWITTERIONIC NANOPARTICLES” (priority 2017, published 2019).
“Also recorded” adds a separate entry of the source.

System: A549 cells
Experiment: Toxicity tests of QDQRs on A549 cells (Cellomics Array Scan, Hoechst 33342 / MitoTracker Deep Red)
Format: cell-based, human
Settings: 16 h incubation
Procedure: The culture medium consisted of 10% FCS in DMEM with 1% PenStrep and sodium pyruvate in each case. The incubation of the cells always took place at 37° C. and a CO2 content of 5%.
The zwitterionic Quantum Dots/Quantum Rods (QDQRs) nanoparticles were examined in various in vitro experiments with regard to their toxicity and non-specific cell uptake. Yellow-emitting QDQRs comprising the short- and long-chain zwitterionic ligand (QDQRs-17a and QDQRs-17b) were used for the studies to investigate a possible influence of the chain length of the ligand on the interactions of the QDQRs with cells. A549 cells were used for both toxicity and cell uptake studies. A549 cells are human basal epithelial cells derived from an adenocarcinoma of the lung which have been cultured as a cell line.
The toxicity of the zwitterionic QDQRs-17a and QDQRs-17b was tested using the Cellomics Array Scan. For the toxicity tests, A549 cells were plated on a 96-well plate and incubated with QDQR solutions in a concentration range of 25 to 500 nM. Cadmium chloride, which was used in a concentration range from 25 to 1,000 μM, was used as the positive control. The increase in the cadmium chloride concentration by a factor of 1,000 is due to the fact that a single QDQR of the tested samples contains about 8,200 cadmium atoms. Assuming that the totality of the nanoparticles dissolve and release the cadmium contained in them, the lowest concentration of 25 nM QDQRs used would correspond to a concentration of 205 μM cadmium chloride. After an incubation period of 16 hours, the cells were blended with a staining solution consisting of the cell nucleus dye Hoechst 33342 and the mitochondrial dye MitoTracker® Deep Red FM and then fixed with formaldehyde solution. The 96-well plates were then read out with the Cellomics Array Scan. A software was used to automatically determine the parameters number of cells, cell nucleus intensity and cell nucleus size using the intensity of the dye by Hoechst, and the transmembrane potential of the mitochondria on the basis of the mitochondrial dye. In addition, microscopic images of the cells were taken to control the number of cells and cell morphology.
For the toxicity tests, A549 cells were plated in culture medium on a 96-well plate (10,000 cells per well) and incubated overnight. When the medium had been sucked off, the samples to be tested (diluted with culture medium, 100 μL per well) were applied in different concentrations and incubated for 16 hours. The samples were then removed and the cells were mixed with 100 μL staining solution (final concentration: 75 nM MitoTracker® Deep Red and 2.5 μg/ml Hoechst 33342 in DMEM with 10% FCS) and incubated for a further 30 minutes. To fix the cells, the staining solution was removed and 100 μL of a warm fixing solution (3.7% formaldehyde in Dulbecco's PBS, DPBS) were added. After 20 minutes, the fixing solution was sucked off and washed twice with DPBS before the samples were measured on the Cellomics Array Scan.

[Cl][Cd][Cl] [cadmium chloride]
morphological changes of the cells or cell nuclei in microscopic images (cadmium chloride at 100 μM or more): get globular | number of cells per well (over the tested concentration range, FIG. 1 A): decreases significantly; also recorded: decreases noticeably | cell nucleus intensity (Hoechst 33342) (over the tested concentration range, FIG. 1 B): decreases significantly | cell nucleus size (over the tested concentration range, FIG. 1 C): decreases significantly | transmembrane potential of the mitochondria (over the tested concentration range, FIG. 1 D): first increases in the concentration range from 50 to 100 μM and then decreases again | concentration at which a toxic effect on the cells is shown (positive control tested 25 to 1,000 μM): ≥ 100 µM
